Assay: gradient 5% acetonitrile 3 min, to 50% in 2 min, to 85% in 15 min, held 3 min, 100 µL/min
Conditions: column: Zorbax Extend-C18 2.1 x 50 mm; eluents: water / acetonitrile, 0.1% formic acid
How it was run: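 Retention times come from adduct peaks that were picked computationally and then checked by hand. The standards, pure and pooled in mixtures of ~100 molecules, were run on a Zorbax Extend-C18 column (2.1 × 50 mm, 1.8 μm) at 100 μL/min with water and acetonitrile, each with 0.1% formic acid. Detection was by quadrupole time-of-flight mass spectrometry in positive and negative ionization mode, with a dead volume of 40 μL and a dwell volume of 900 μL.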

SMILES	RP-LC retention time [s]
O=C(Nc1ccc(C(=O)O)c(O)c1)c1cc2ccccc2c(=O)o1	770
CCCOc1ccc(CNC(=O)C2CCc3nc(N4CCOCC4)ncc3C2)cc1 (stereo unspecified)	792
CCOc1cccc(CN2C[C@@H]3C(=O)N(Cc4ccc5c(c4)OCO5)C(=O)[C@@H]3C2)c1	770
O=C(Cn1cc(-c2nnc(-c3ccco3)o2)c2ccccc21)N1CCCC1	724
Cc1ccc(Nc2c(-c3cc(Br)ccc3O)nc3ncccn23)cc1	1050
Cc1nc(C)c(C(=O)N2CCCC2c2nc(CCOCC3CCCC3)no2)s1 (stereo unspecified)	905
Cn1cc(-c2nc(C(=O)NCc3ccc(C(F)(F)F)cc3)cs2)c2cccnc21	1040
CC(=O)N1CCc2cc(-c3ccc(C(=O)NCCN4CCCCC4C)cc3)ccc21 (stereo unspecified)	622
CCOc1ccccc1NC(=O)N1CC(n2ccnc2C)C1	639
COc1ccc(CNC(=O)C2CCCN(c3nnc4ccc(Cl)cn34)C2)cc1OC (stereo unspecified)	685
CCC(=O)Nc1ccc(-n2cnc(C(=O)N3CCc4ccccc4C3)c2)nc1	721
Cn1c(C(=O)N2CCCC(C(=O)N3CCc4ccccc4C3)C2)cc2sccc21 (stereo unspecified)	925
CCCn1c(C)cnc1C1CN(S(=O)(=O)c2cccc(Cl)c2)C1	669
Cc1ncn(CC(=O)Nc2ccccc2Cl)c(=O)c1C	668
CCOc1ccc(C(=O)NC2(c3nc(CC)no3)CCCCC2)cc1OCC	990
CCCNC(=O)C1CCCN(c2cc(=O)n(C)c(=O)n2C)C1 (stereo unspecified)	597
COc1ccc(-c2cc(N3CCC(NC(=O)c4ccc(Br)o4)CC3)n[nH]2)cc1	735
COc1ccc(CC(=O)Nc2ccc(-c3nc(Cn4cccn4)c(C)o3)cc2)cc1	838
Cc1nn(C)c2nc(OCC(=O)Nc3ccc(Br)cc3F)cc(C(F)(F)F)c12	1080
Cc1cccc(CNC(=O)CN2CCN(Cc3ccc(F)cc3)C(=O)C2=O)c1	740
CC(C)CC(=O)NCCn1c(=O)n(Cc2ccc(F)cc2)c2cccnc21	750
O=C(Cc1ccsc1)NCCC1CCN(C(=O)Nc2ccccc2)CC1	792

SMILES	RP-LC retention time [s]
CC(C)C(=O)N1CCc2c(c(C(=O)N3CCC(C(=O)N4CCC5(CC4)OCCO5)CC3)nn2C)C1	626
CCn1ccc(C(=O)NCC23CCC=C2N(CC2CC2)C(=O)CC3)n1 (stereo unspecified)	770
CCc1nc2cc(-c3noc(-c4ccc(OC)c(F)c4)n3)ccc2o1	1170
O=C(c1ccc(F)cc1)N1CCN(c2nc(CN3CCOCC3)cs2)CC1	597
O=C(NCC1(c2ccccc2)CCOCC1)c1cccc(C(F)(F)F)c1	852
O=C(CCc1nnc2c(N3CCCCC3)nc3ccccc3n12)NCc1ccccc1F	903
Cc1ccc(=O)n(CC(=O)N2CCOCC2)n1	514
COc1ccc(Br)c(C(=O)Nc2ccc3c(c2)N(C(=O)C2CCCC2)CC3)c1	950
COc1ccccc1-c1noc(C2CCCN2C(=O)c2n[nH]c3ccccc23)n1 (stereo unspecified)	829
CCn1ncn2cc(S(=O)(=O)Nc3ccc(C)cc3)cc2c1=O	882
Cc1cc(C)c(CNC(=O)c2nnc(-c3ccc(S(=O)(=O)N(C)C)cc3)o2)c(C)c1	1010
Cc1cccc(CNC(=O)C2CCN(S(=O)(=O)c3ccc4c(c3)sc(=O)n4C(C)C)CC2)c1	985
O=C(C1CC1)N1CCN(c2ccc(=O)n(-c3cccc(Cl)c3)n2)CC1	738
Cc1ccc(C)c(S(=O)(=O)N2CC(c3noc(C)n3)C3(CCOCC3)C2)c1 (stereo unspecified)	929
Fc1ccc(CN2CCC3(CC2)N=C(C2CC2)NO3)cc1	583
Cc1cccc(C)c1Nc1c(-c2ccccc2)nc2ncccn12	786
Cc1nn(CC(=O)Nc2ccc(Cl)cc2F)c(=O)c2noc(C)c12	796
CC1(C)[C@H]2CC[C@](C)(C2)[C@H]1NS(=O)(=O)c1ccc(F)cc1	1140
CCCn1cc(CCNS(=O)(=O)c2ccc(C(C)C)cc2)c2cccnc21	1030
Cc1cccc(N2CCN(S(=O)(=O)c3cc4n(c3)CCCN(C(C)C)C4=O)CC2)c1	921
NC(=O)C1CCN(C(=O)CN2c3ccccc3NC3=C(C(=O)CCC3)C2c2cccs2)CC1 (stereo unspecified)	630
Cc1ccc(Oc2nccnc2N2CCCC(C(=O)N3CCN(c4cc(C)ccc4C)CC3)C2)cc1 (stereo unspecified)	1400

SMILES	RP-LC retention time [s]
O=C(NCc1cccs1)C1CCCN(c2nc3ccsc3c(=O)n2-c2ccccc2)C1 (stereo unspecified)	816
CCC(C)OC(=O)c1[nH]c2c(c1C)C(=O)CC(c1ccc(N(C)C)cc1)C2 (stereo unspecified)	764
CCOc1ccc(C(O)Cn2ccn3nc(-c4ccccc4C)cc3c2=O)cc1 (stereo unspecified)	985
COc1ccc(NC(=O)N2CCC(n3cnc4cc(F)ccc4c3=O)CC2)c(OC)c1	732
CCOc1ccccc1NC(=O)N(C)CCc1noc(C2CCCCC2)n1	1070
CC(C)c1ccc(N2C=C(C(=O)N3CCOCC3)S(=O)(=O)c3ccccc32)cc1	916
CCn1cc(-c2ccc(F)cc2)cc1C(=O)NC1CC1	917
CCOc1ccc(CC(=O)NCCc2nc3cccnc3n2C)cc1	733
O=C(NCCCc1ccccc1)C1CCN(C(=O)c2ncn3c2COC(c2ccc(F)cc2)C3)CC1 (stereo unspecified)	818
Cc1cc(CN2CCC(CNC(=O)C(=O)Nc3cccnc3)CC2)c(C)o1	681
Cc1ccc(CN2C(=O)CN(S(=O)(=O)c3ccccc3)CC2(C)C(=O)NCCC(C)C)cc1 (stereo unspecified)	1040
CCN1c2ccc(C)cc2C(=O)NC12CCN(C(=O)c1ccc(F)c(Cl)c1)CC2	888
COc1ccccc1NC(=O)CSc1ncc(S(=O)(=O)c2ccccc2)c(N)n1	790
O=C(Nc1ccccc1C(F)(F)F)C1CN(C(=O)c2ccc(F)c(F)c2)C1	748
CCOc1ccc(NC(=O)c2c(Cl)ccc(Cl)c2OC)cc1	913
CCOC(=O)c1cccc(NC(=O)N2CCC3(CC2)NC(=O)c2ccccc2O3)c1	804
CCN1C(=O)c2cccnc2Sc2cc(CNC(=O)c3ccoc3)ccc21	702
O=C(NCc1ccc2c(c1)OCO2)C1CCCN(c2cnc3nccnc3c2)C1 (stereo unspecified)	666
CCOC(=O)C1CCN([C@H]2CS(=O)(=O)C[C@@H]2S(=O)(=O)c2ccc(F)cc2)CC1	889
O=C(Nc1ccc2c(c1)OCO2)C1CCCN(S(=O)(=O)Cc2ccc(Cl)cc2)C1 (stereo unspecified)	964
COc1ccc(Cl)cc1NC(=O)c1cn(C)c2ncccc12	955
O=C(O)C1CCN(c2nc3ccc(-c4ccccc4)nc3s2)CC1	868

— the METLIN SMRT retention time set (Domingo-Almenara et al. 2019)
